From patent publication US20250222116A1, “PARP-1 DEGRADATION AGENT AND USE THEREOF” (XIZANG HAISCO PHARMACEUTICAL CO., LTD., priority 2021, published 2025)

How the values were obtained:
PARP1 [1] = target: T1, PARP1 (Homo sapiens (Human), UniProt P09874); test: PARP1 enzyme activity inhibition (chemiluminescence kit); format: biochemical
Procedure: (§1) PARP1, PARP2 and PARP7 chemical […] detection kits were all purchased from BPS Bioscience. The histone solution in the kit was diluted 5× with 1×PBS, and 25 μL of the diluted histone solution was added to a microwell plate and incubated overnight at 4° C. After the incubation was completed, the plate was washed three times with PBST (0.05% Tween-20). 25 μL of a blocking solution was added to the microwell plate and incubated at 25° C. for 90 minutes. After the incubation was completed, the plate was washed three times with PBST. 2.5 μL of compounds at different concentrations diluted in test buffer and 5 μL of 2.5× substrate mixed solution were added to the microwell plate. PARP1, PARP2 and PARP7 enzymes were diluted to 0.33, 0.23 and 5.00 ng/μL, respectively, 5 μL of the diluent was added to the microwell plate, and the reaction system was incubated at 25° C. for 60 minutes. After the incubation was completed, the plate was washed three times with PBST. […] ELISA ECL substrate A and substrate B were mixed at a ratio of 1:1 (v/v), 25 μL of the mixture was added to the microwell plate, and the chemiluminescence value was read using a BMG microplate reader.
(§2) Curve fitting was performed by four parameters (log(inhibitor) vs. response−Variable slope) using GraphPad Prism software, and the IC50 value was calculated.

[2] = Pharmacokinetic test in mice; format: in vivo, ICR mice
Procedure: 8.1 Experimental animals: male ICR mice, 20 to 25 g, 18 mice/compound, purchased from Chengdu Ddossy Experimental Animals Co., Ltd.
8.2 Experimental design: on the day of the experiment, 36 ICR mice were randomly grouped according to their body weights. The animals were fasted with water available for 12 to 14 h one day before the administration, and were fed 4 h after the administration.
(§3) Before and after the administration, 0.06 mL of blood was taken from the orbit of the animals under isoflurane anesthesia and placed in an EDTAK2 centrifuge tube. The blood was centrifuged at 5000 rpm and 4° C. for 10 min to collect plasma. The blood collection time points for the intravenous group and intragastric administration group were: 0 min, 5 min, 15 min, 30 min, 1 h, 2 h, 4 h, 6 h, 8 h, and 24 h. Before analysis and detection, all samples were stored at −80° C. The samples were analyzed quantitatively by LC-MS/MS.

PARP1 [3] = target: T1, PARP1; test: PARP1 protein expression level in MDA-MB-231 cells; format: cell-based; settings: 24 hours
Procedure: The cells were collected into a 1.5 mL centrifuge tube, 25 μL of RIPA lysis buffer (containing 1× protease inhibitor cocktail) was added, and the cells were lysed on ice for 15 minutes and centrifuged at 12000 rpm/min at 4° C. for 10 minutes. The supernatant was collected and the protein content was determined using the BCA method. […] DC50 values were calculated using a four-parameter non-linear fitting model in Graphpad 8.3.0 software.

PARP2 [4] = target: T2, PARP2 (Homo sapiens (Human), UniProt Q9UGN5); test: PARP2 protein expression level in MDA-MB-231 cells; format: cell-based
T2 sequence (Q9UGN5 whole entry): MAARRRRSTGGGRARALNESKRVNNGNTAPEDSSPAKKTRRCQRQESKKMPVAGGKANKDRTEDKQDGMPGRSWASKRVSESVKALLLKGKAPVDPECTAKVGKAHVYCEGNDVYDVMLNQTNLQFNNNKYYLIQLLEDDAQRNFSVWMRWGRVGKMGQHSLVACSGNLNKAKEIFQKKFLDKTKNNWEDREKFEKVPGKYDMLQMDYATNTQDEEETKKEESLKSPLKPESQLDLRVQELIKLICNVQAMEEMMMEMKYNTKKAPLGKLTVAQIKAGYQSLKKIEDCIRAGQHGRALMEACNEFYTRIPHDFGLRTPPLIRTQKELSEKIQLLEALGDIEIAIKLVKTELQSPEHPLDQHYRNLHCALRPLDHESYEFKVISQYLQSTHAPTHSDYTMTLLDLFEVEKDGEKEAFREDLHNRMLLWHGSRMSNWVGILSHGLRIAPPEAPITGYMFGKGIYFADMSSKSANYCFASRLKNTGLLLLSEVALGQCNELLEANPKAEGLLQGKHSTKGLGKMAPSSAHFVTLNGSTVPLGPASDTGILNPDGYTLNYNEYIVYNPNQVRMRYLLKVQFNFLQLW
Procedure: MDA-MB-231 cells were placed in a complete DMEM medium (supplemented with 10% FBS and 1% penicillin-streptomycin solution) and cultured at 37° C. and 5% CO2. The cells in the logarithmic growth phase were collected, the cell density was adjusted to 5×10^5 cells/well with the culture medium, and the cells were added to a 6-well cell culture plate at a volume of 1 mL/well, and cultured overnight in a 37° C., 5% CO2 incubator. On day 2, the compound to be tested was prepared to 2-fold the final concentration, 1 mL of the compounds at different concentrations were added to administration wells and a medium containing 0.2% DMSO was added to control wells, and the plate was incubated for 24 hours at 37° C. and 5% CO2. […] The supernatant was collected and the protein content was determined using the BCA method. The protein sample to be tested was diluted to 2 mg/mL, PARP2 was detected using a fully automated protein expression quantitative analyzer (ProteinSimple), and the internal reference protein was 3-actin (both antibodies were from CST). The software (Compass for SW) of the fully automated protein expression quantitative analyzer was used to process the raw data and calculate the peak area and the PARP2 expression rate relative to the control group. DC50 values were calculated using a four-parameter non-linear fitting model in Graphpad 8.3.0 software.

[5] = Pharmacokinetic test in rats; format: in vivo, SD rats
Procedure: 7.1 Experimental animals: male SD rats, about 220 g, 6-8 weeks old, 6 rats/compound, purchased from Chengdu Ddossy Experimental Animals Co., Ltd.
7.2 Experimental design: on the day of the experiment, 12 SD rats were randomly grouped according to their body weights. The animals were fasted with water available for 12 to 14 h one day before the administration, and were fed 4 h after the administration.
as §3, with “administration, 0.15” for “administration, 0.06”, “intravenous administration” for “intravenous”, “were: 0,” for “were: 0 min,”

PARP2 [6] = target: T2, PARP2; test: PARP2 enzyme activity inhibition (chemiluminescence kit); format: biochemical
Procedure: as §1, §2

[7] = male, ICR, mouse, iv, i.v. 2.5 mg/kg, plasma
[8] = male, SD, rat, iv, i.v. 2.5 mg/kg, plasma

T1 sequence (P09874 whole entry): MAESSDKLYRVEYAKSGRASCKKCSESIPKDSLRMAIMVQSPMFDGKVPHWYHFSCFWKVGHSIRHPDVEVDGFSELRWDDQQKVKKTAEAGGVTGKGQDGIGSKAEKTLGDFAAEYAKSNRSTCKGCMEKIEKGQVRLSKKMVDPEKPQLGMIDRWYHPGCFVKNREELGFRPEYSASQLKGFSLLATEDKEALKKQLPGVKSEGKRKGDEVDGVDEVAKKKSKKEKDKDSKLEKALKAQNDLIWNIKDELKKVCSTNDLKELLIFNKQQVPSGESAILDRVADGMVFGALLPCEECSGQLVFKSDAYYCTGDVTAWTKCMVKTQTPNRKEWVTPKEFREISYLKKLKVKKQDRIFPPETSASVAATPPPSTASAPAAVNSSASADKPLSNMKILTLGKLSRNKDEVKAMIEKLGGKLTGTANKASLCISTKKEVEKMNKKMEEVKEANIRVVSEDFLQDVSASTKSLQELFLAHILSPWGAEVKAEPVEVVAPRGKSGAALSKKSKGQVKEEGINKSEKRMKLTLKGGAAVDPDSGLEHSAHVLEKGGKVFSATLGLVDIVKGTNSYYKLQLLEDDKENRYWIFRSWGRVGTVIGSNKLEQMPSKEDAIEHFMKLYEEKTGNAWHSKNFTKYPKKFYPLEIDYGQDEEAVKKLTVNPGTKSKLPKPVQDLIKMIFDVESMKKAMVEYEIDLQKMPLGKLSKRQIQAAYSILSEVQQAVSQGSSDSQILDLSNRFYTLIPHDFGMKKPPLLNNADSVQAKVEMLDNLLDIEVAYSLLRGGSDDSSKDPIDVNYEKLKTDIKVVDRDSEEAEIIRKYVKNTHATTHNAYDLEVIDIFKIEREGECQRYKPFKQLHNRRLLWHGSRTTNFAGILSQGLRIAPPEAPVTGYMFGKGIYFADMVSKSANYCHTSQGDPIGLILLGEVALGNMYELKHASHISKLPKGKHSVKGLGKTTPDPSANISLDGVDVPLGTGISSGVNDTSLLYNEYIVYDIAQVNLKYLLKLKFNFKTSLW

Which IC50 (PARP1 [1]; PARP1 enzyme) does the source give for `CCc1cc2ncc(CN3CCN(c4ccc(C(=O)NC5CCN(c6ccc7c(c6)C(=O)N(C6CCC(=O)NC6=O)C7=O)CC5)nc4)CC3)cc2[nH]c1=O` (stereo not drawn) [Compound 10, N-(1-(2-(2,6-dioxopiperidin-3-yl)-1,3-dioxoisoindolin-5-yl)piperidin-4-yl)-5-(4-((7-ethyl-6-oxo-5,6-dihydro-1,5-naphthyridin-3-yl)methyl)piperazin-1-yl)picolinamide] here?
The IC50 was 0.32 nM.

And the “PARP1 inhibitory selectivity over PARP2 and PARP7” value (PARP1 [1]; enzyme activities in vitro)?
The value was “good PARP1 inhibitory selectivity”.

What about the pharmacokinetic characteristics [2] of the same molecule?
Its pharmacokinetic characteristics is “good pharmacokinetic characteristics”.

And the F ([2]; i.g. 10 mg/kg)?
Its F is 84.6%.

And the AUC(0-t) [2, 7]?
Its AUC(0-t) is 20600 ng·h/mL.

What about the clearance [2, 7] of the same molecule?
The clearance was 2.02 mL/min/kg.

And the Vd ([2]; male, ICR, mouse, iv, i.v. 2.5 mg/kg, plasma, read-out: Vdss)?
The Vd was 0.358 L/kg.

What about the AUC(0-t) ([2]; male, ICR, mouse, po, i.g. 10 mg/kg, plasma) of the same molecule?
The AUC(0-t) was 69800 ng·h/mL.

What about the DC50 (PARP1 [3]) of the same molecule?
The DC50 was 0.12 nM.

And the “PARP1 degradation selectivity over PARP2” value (PARP2 [4])?
Its value is “good PARP1 degradation selectivity”.

What about the DC50 (PARP2 [4]; 24 hours) of the same molecule?
The DC50 was greater than 5 nM.

What about the pharmacokinetic characteristics [5] of the same molecule?
Its pharmacokinetic characteristics is “good pharmacokinetic characteristics”.

And the F ([5]; i.g. 10 mg/kg)?
The F was 34.3%.

What about the AUC(0-t) [5, 8] of the same molecule?
Its AUC(0-t) is 31200 ng·h/mL.

And the clearance [5, 8]?
Its clearance is 1.42 mL/min/kg.

And the Vd ([5]; male, SD, rat, iv, i.v. 2.5 mg/kg, plasma, read-out: Vdss)?
The Vd was 0.405 L/kg.

And the AUC(0-t) ([5]; male, SD, rat, po, i.g. 10 mg/kg, plasma)?
The AUC(0-t) was 42900 ng·h/mL.

And the IC50 (PARP2 [6])?
The IC50 was 41 nM.
